Values quoted from earlier work as cited in US8106028B2, “MicroRNA-21 antagonists and its target PDCD4 for use in the treatment of a glioma” (Trustees of Dartmouth College, priority 2009, dated 2012).

System: PDCD4
Conditions: breast cancer cells; Afonja, et al. (2004)

For `CC1(C)CCC(C)(C)c2cc(C(=O)Nc3ccc(C(=O)O)cc3)ccc21` [Am580], the “expression of PDCD4” value is listed as “stimulate the expression of PDCD4”.
